# How the values were obtained:
# [1] = system: relapsing-remitting multiple sclerosis; assay: Confirmed relapses (annualized relapse rate, time to first relapse); assay type: in vivo, human; details: for Annualized relapse rate in 12 months, Rate (95% CI) / Annualized relapse rate in 24 months, Rate (95% CI): negative binomial regression
# Method: The primary efficacy end point was the annualized relapse rate. A relapse was defined as the appearance of new neurological symptoms or the worsening of pre-existing symptoms, lasting at least 48 hours in a subject who had been neurologically stable or improving in the previous 30 days, accompanied by an objective change in a neurological examination (i.e., a worsening of 0.5 or more points on the EDSS or a worsening by 1.0 or more points on the pyramidal, cerebellar, brainstem or visual functional system scores, not due to fatigue alone and not associated with fever or infection). […] Both treating and examining physicians were unaware of study group assignments. The standard treatment for relapse was a 3-5 day course of glucocorticoids at the discretion of the treating neurologist.
# Intention-to-treat analyses were carried out for all end points. […] To control the overall type I error, a sequential testing procedure was applied. […] Consistent with a phase 2 study using a clinical outcome, a p-value<0.10 was considered statistically significant.
# For the time to first relapse analysis, Kaplan Meier curves and log-rank test were used to estimate and compare the relapse free probabilities of the two treatment groups. Cox proportional hazards model was used to compare the time to relapse free probabilities between two groups adjusting for covariates. […] The random effect of subject is included in the model to account for within subject correlation.
# For the primary endpoint, the main analysis seeks to compare the relapse event rate between treatment groups based on the negative binomial regression. As a sensitivity analysis, recurrent events analysis was performed based on Andersen Gill model to compare the relapse hazard rate between treatment groups.
# [2] = system: relapsing-remitting multiple sclerosis; assay: Gadolinium enhancing lesions on brain MRI; assay type: in vivo, human; design: Enhancing lesion volume, mean ± SD: unit not given here
# Method: Mixed effects negative binomial regression model and linear mixed effects model were used to compare enhancing lesion volume (log-transformed) between treatment groups at all follow-ups, and mixed effects logistic model was used to compare the number of subjects positive for gadolinium enhancing lesions. Linear mixed effects model was carried out to compare the percent change in whole gray matter and cortical gray matter between treatment groups. For the exploratory endpoints of EDSS, PASAT, fatigue, depression, quality of life and brain volume measures, linear mixed effects model was used to compare treatment groups at 12 and 24 months.
# Dual-echo fast spin echo: TR10000, TE12/95, 50 slices, 1×1×3 mm. Fluid attenuated inversion recovery (FLAIR): TR10380, TE88, TI88, TI2500, 50 slices, 1×1×3 mm. Minor changes were allowed to accommodate different platforms and field strengths at each site. MRI data in Dicom format were fully anonymized prior to transfer and then uploaded to the central MRI reading center database. Prior to study onset, each site provided a dummy scan utilizing the standardized sequences for review by the central MRI reading center to verify scan quality and fidelity. Quality control was maintained at each site using standard procedures for clinical scanners (daily phantoms, stability testing). Quarterly phantoms were collected from 12 of the 15 sites, most using the standard American College of Radiology (ACR) phatom. One site upgraded from a Siemens 1.5T to a 3.0T in November 2013, resulting in the acquisition of one month 24 scan on the new scanner. One site upgraded from a Phillips Achieva 3.0T to a Pillips Intera 3.0T after the first subject completed month 24. All subsequent studies were performed on the Intera.
# Analysis of gadolinium enhancing lesions and T2 lesions were performed as described by Sicotte et al. (Ann. Neurology 52:421 (2002)). Briefly, MRI data was coded by study site and randomization number. The number and volume of enhancing lesions were quantified on the post contrast T1 weighted scans by an experienced investigator who was blind to treatment group using a semi-automated threshold-based algorithm. To assess T2 lesions, all FLAIR images were RF corrected, then intensity normalized and registered into a common space defined by the baseline scan for each individual. All subsequent scans were registered to the baseline exam for spatial normalization using a rigid body model. T2 lesion areas were determined using a semi-automated intensity based segmentation procedure by a trained, experienced researcher verified by a single investigator (NLS).
substance,measurement,setting,value
glatiramer acetate [Placebo + GA],Proportion of pts with relapse at 12 months % (95% CI),[1]; Kaplan-Meier,33.1 (23.5-45.2) %
same,Proportion of pts with relapse at 24 months % (95% CI),[1]; Kaplan-Meier,42.9 (32.1-55.5) %
same,"Annualized relapse rate in 12 months, Rate (95% CI)",[1],0.48 (0.33-0.69)
same,"Annualized relapse rate in 24 months, Rate (95% CI)",[1],0.37 (0.25-0.53)
same,"Annualized relapse rate in 12 months, Rate (95% CI)",[1]; listed as Placebo+GA,0.48
same,"Annualized relapse rate in 24 months, Rate (95% CI)",[1]; listed as Placebo+GA,0.37
same,"Enhancing lesion volume, mean ± SD",[2]; Baseline,49.9 ± 121.2
same,"Enhancing lesion volume, median",[2]; Baseline,0
same,Percentage patients with enhancing lesions % (95% CI),[2]; Baseline,29.3 (19.0-39.6) %
same,"Enhancing lesion volume, mean ± SD",[2]; Month 12,27.4 ± 147.2
same,"Enhancing lesion volume, median",[2]; Month 12,0
same,Percentage patients with enhancing lesions % (95% CI),[2]; Month 12,21.0 (10.8-31.1) %
same,"Enhancing lesion volume, mean ± SD",[2]; Month 24,17.9 ± 71.1
same,"Enhancing lesion volume, median",[2]; Month 24,0
same,Percentage patients with enhancing lesions % (95% CI),[2]; Month 24,14.6 (5.2-23.9) %
same,Decrease in enhancing lesion volumes,[2]; month 12 vs baseline,45%

# — patent publication US10406169B2, “Methods of monitoring estriol therapy” (The Regents of the University of California, priority 2015, dated 2019)
